Assays:
Type in all cases: in vivo
Lasius japonicus = assay: Test Example 23: skim milk poison bait placed near ant nest, number of ants passing the gate per minute; details: 0.2% (W/W) bait, ants through the gate per minute
Source text: 2 g of this poison bait chemical was placed directly on an optional ground surface distanced by about 50 cm from the gate of the ant nest. Before, 2 days after, 3 days after and 5 days after placing the poison bait chemical, the number of ants going out and coming in through the gate per minute was examined.

Reticulitermes speratus [1] = assay: Test Example 9: treated filter paper in acrylic cup, termite mortality 5 and 20 days later; details: 1000 ppm
Protocol: A filter paper having a diameter of 80 mm was placed in a cylindrical cup made of acrylic resin having a diameter of 80 mm and a height of 60 mm (i.e. a cup having a hole with a diameter of 10 mm formed in the bottom and having hard plaster (Dental Stone) set at the bottom in a thickness of 10 mm), and 1 ml of a solution containing a sample compound in a predetermined concentration, was dropped thereon. Then, ten termite workers and one termite soldier (Reticulitermes speratus) were released thereon. The cup was placed in a container having wet cotton laid over the bottom, and the container was maintained at room temperature of 25° C., and 5 days later and 20 days later, the mortality of termites in the cup was examined.

Reticulitermes speratus [2] = assay: Test Example 15: fresh pulp poison bait, termite mortality after 18 days; details: fresh pulp bait 0.1%
Source text: Fresh pulp (2 cm×2 cm×0.1 cm) was immersed in a methanol solution of a sample compound. Then, it was dried to obtain a fresh pulp poison bait chemical containing 0.1% of the sample compound. This poison bait chemical was placed in a cylindrical cup made of acrylic resin (i.e. a cup having a hole with a diameter of 10 mm formed in the bottom and having hard plaster (Dental Stone) set at the bottom in a thickness of 10 mm), and 20 termite workers (Reticulitermes speratus) were released thereon. The cup was placed in a container having wet cotton laid over the bottom, and the container was maintained at room temperature of 25° C. for 18 days, whereupon the number of dead termites in the cup was examined, and the mortality was calculated.

Coptotermes formosanus [3] = assay: Test Example 24: treated filter paper in Petri dish, termite mortality on 21st or 28th day; details: 21st day
Protocol: Mortality (%)=(Number of dead termite workers/15 termite workers)×100
Further, by the Colby's formula, the theoretical value (%) of mortality can be calculated. In a case where the actual mortality (%) is higher than the theoretical value (%), it can be said that the composition of the present invention has a synergistic effect for controlling the house insect pest.
A filter paper having a diameter of 80 mm was placed in a plastic Petri dish, and 1 ml of a pesticide solution having a predetermined concentration was dropped thereon, whereupon 10 termite workers (Coptotermes formosanus) were released, and a cover was put on the Petri dish. This plastic Petri dish was put in a container having wet cotton laid over the bottom and maintained at room temperature of 25° C. On 21 or 28th day after the treatment, the number of dead termites in the Petri dish was examined, and the mortality was calculated in the same manner as Test Example 1.

Priplaneta americana = assay: Test Example 12: mouse feed poison bait, mortality with time; details: bait 1%
Protocol: 1 g of feeding stuff for mice was treated with 0.5 ml of an acetone solution containing 10 mg of a sample compound and put in a constant temperature chamber at 40° C. for 20 hours to sufficiently evaporate acetone, whereby a poison bait chemical containing 1% of the sample compound was prepared. Then, this poison bait chemical was put into a cup together with a wet cotton, and 10 […] (Priplaneta americana) were released and kept at 25° C. in a breeding room, whereby the mortality was examined as the time passed.

Coptotermes formosanus [4] = assay: Test Example 20: treated sandy soil, termite mortality and abnormal ratio with time
Protocol: Sandy soil passed through a sieve of 20 mesh, was dried at a temperature of 60° C. to a constant weight, and 4 g of the soil thus obtained, was packed into a cup having a diameter of 60 mm. 1 ml of a pesticide solution adjusted to a predetermined concentration was added and thoroughly mixed, whereupon 15 termite workers (Coptotermes formosanus) were leased. The cup was placed in a container having wet cotton laid over the bottom, and the container was maintained at room temperature of 25° C., whereby the number of dead termites in the cup was examined as the time passed, and the mortality was calculated.

Reticulitermes speratus [5] = assay: Test Example 10: coated Japanese red pine wood block, termite mortality and weight loss after 24 days; details: wood block coated with 0.2% solution
Protocol: Mean weight loss (%) of the wood block=(W1−W2/W1)×100
A solution containing a sample compound in a predetermined concentration was coated by a paint brush in an amount of 110±10 mg on a rectangular parallelpiped wood block of Japanese red pine (20 mm×10 mm×10 mm). The treated wood block was naturally dried in a dark room of 25° C. for 14 days. Then, the treated wood block and a non-treated wood block were dried at a temperature of 60° C. for 72 hours, and their weights (W1) were measured, and they were used as test specimens. Such a test specimen was put into a cylindrical cup made of acrylic resin (i.e. a cup having a hole with a diameter of 10 mm formed in the bottom and having hard plaster (Dental Stone) set at the bottom in a thickness of 10 mm), and 150 termite workers and 10 termite soldiers (Reticulitermes speratus) were released thereon. The cup was placed in a container having wet cotton laid over the bottom, and the container was maintained at room temperature of 25° C. for 24 days, whereupon the mortality of termites in the cup was examined. Further, the test specimen was taken out from the cup, and the deposited substance was removed from the surface of the test specimen. After drying at a temperature of 60° C. for 72 hours, it was weighed to obtain the weight (W2), whereupon the mean weight loss was calculated.

[6] = 1000 ppm solution, 4 Days later

Q: What does the source list for CC(=NN=C(Cc1ccc(C(F)(F)F)cc1)c1ccc(F)cc1)N(C)C [Compound No. II-2, [4′-fluoro-2-(4-trifluoromethylphenyl)acetophenone]N′-[1-(dimethylamino)ethylidene]hydrazone]?
A: Ants passing the nest gate per minute (Lasius japonicus; 2 Days later): 11; Ants passing the nest gate per minute (Lasius japonicus; 3 Days later): 3; Ants passing the nest gate per minute (Lasius japonicus; 5 Days later): 0; Ants passing the nest gate per minute (Lasius japonicus; Before placing poison bait chemical): 153; Mortality (Reticulitermes speratus [1]; 5 Days later): 100%; Mortality (Reticulitermes speratus [1]; 20 Days later): 100%; Mortality (Reticulitermes speratus [2]): 100%; Mortality (Coptotermes formosanus [3]; II-2 5 ppm alone): 0%; Mortality (Coptotermes formosanus [3]; II-2 10 ppm alone): 20%; Mortality (Coptotermes formosanus [3]; II-2 20 ppm alone): 60%; Mortality (Priplaneta americana; 1 Day later): 0%; Mortality (Priplaneta americana; 8 Days later): 0%; Mortality (Priplaneta americana; 48 Days later): 30%; Mortality (Coptotermes formosanus [4]; 250 ppm solution, 1 Day later): 0%; Mortality (Coptotermes formosanus [4]; 250 ppm solution, 4 Days later): 0%; abnormal ratio (Coptotermes formosanus [4]; 250 ppm solution, 4 Days later): 7%; Mortality (Coptotermes formosanus [4]; 250 ppm solution, 11 Days later): 100%; Mortality (Coptotermes formosanus [4]; 1000 ppm solution, 1 Day later): 0%; Mortality (Coptotermes formosanus [4]; [6]): 73%; abnormal ratio (Coptotermes formosanus [4]; [6]): 27%; Mortality (Coptotermes formosanus [4]; 1000 ppm solution, 11 Days later): 100%; Mortality (Coptotermes formosanus [4]; 4000 ppm solution, 1 Day later): 0%; abnormal ratio (Coptotermes formosanus [4]; 4000 ppm solution, 1 Day later): 100%; Mortality (Coptotermes formosanus [4]; 4000 ppm solution, 4 Days later): 100%; Mortality (Coptotermes formosanus [4]; 4000 ppm solution, 11 Days later): 100%; Mean weight loss (Reticulitermes speratus [5]): 2.9%; Mortality Termite soldiers (Reticulitermes speratus [5]): 100%; Mortality Termite workers (Reticulitermes speratus [5]): 100%
